Values joined by “and” are separate entries in the source; they are usually repeats but may differ in a detail not shown here. Equal values may be shown once. Read-outs that look alike come from different tables or passages of the source.
Experiments:
[1] = target: T1, cardiac SR (SERCA2a + PLB) (Sus scrofa, UniProt P11607); assay: Ca-ATPase activity of cardiac SR (CSR), NADH-linked enzyme-coupled assay; type: biochemical, pig; details: for Vmax @ 30 µM / ΔVmax @ 30 µM: 30 µM compound; for ΔVmax @ 30 µM: relative to DMSO control
T1 construct: Cardiac SR membrane vesicles were isolated from ventricular myocardium obtained from fresh pig hearts; from tissue; host or cells: pig ventricular myocardium, SR membrane vesicles
T1 sequence (P11607 1-997 isoform P11607-2): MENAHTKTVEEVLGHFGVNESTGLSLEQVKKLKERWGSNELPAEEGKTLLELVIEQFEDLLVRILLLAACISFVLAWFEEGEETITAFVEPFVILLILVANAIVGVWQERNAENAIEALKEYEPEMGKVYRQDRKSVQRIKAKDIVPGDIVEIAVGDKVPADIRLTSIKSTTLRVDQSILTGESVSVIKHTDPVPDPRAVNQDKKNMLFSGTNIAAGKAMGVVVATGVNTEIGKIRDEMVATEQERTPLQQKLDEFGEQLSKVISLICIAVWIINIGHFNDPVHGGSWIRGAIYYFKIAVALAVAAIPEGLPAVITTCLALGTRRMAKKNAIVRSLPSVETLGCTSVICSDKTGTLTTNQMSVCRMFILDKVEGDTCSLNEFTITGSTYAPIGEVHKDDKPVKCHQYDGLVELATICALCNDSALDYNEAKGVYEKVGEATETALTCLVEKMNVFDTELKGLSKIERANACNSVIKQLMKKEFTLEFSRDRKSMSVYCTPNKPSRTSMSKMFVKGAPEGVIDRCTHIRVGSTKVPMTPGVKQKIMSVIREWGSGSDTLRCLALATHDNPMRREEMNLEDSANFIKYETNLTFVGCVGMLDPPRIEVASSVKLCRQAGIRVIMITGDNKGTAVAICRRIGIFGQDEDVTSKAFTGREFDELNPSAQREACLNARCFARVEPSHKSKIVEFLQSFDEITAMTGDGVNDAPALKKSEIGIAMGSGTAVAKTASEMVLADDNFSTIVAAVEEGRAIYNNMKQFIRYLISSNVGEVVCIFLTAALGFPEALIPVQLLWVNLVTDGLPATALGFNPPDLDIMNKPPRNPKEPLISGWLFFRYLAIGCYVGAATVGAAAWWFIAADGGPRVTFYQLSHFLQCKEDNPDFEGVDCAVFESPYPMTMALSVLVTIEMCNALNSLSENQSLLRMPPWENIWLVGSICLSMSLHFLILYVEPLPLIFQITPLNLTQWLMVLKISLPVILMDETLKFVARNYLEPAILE
T1 sequence (P61013 whole entry partner): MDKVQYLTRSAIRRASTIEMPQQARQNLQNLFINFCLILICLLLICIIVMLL
Procedure: To characterize the relationship between the structural readout (FRET) and the functional effects, in vitro Ca-ATPase assays were performed on cardiac SR (which contains both SERCA2a and PLB). […] To further examine the functional effects of Hit compounds, Ca-ATPase assays were performed on both skeletal SR (SERCA1a only) and cardiac SR (SERCA2a + PLB) at a series of Ca concentrations ranging from pCa 5 to 8.
(§1) Skeletal muscle SR membrane vesicles were isolated from longissimus dorsi obtained from New Zealand white rabbits, as previously described. Cardiac SR membrane vesicles were isolated from ventricular myocardium obtained from fresh pig hearts. All experimental protocols were reviewed and approved by University of Minnesota’s Institutional Animal Care and Use Committee, an Association for Assessment and Accreditation of Laboratory Animal Care institution.
(§2) An enzyme-coupled, NADH-linked ATPase assay was used to measure SERCA ATPase activity in 96-well microplates. Each well contained 0.8 μg (skeletal) or 2 μg (cardiac) of SR vesicles adjusted for the different SERCA contents of skeletal and cardiac SR, 50 mM MOPS (pH 7.0), 100 mM KCl, 5 mM MgCl2, 1 mM EGTA, 0.2 mM NADH, 1 mM phosphoenol pyruvate, 10 IU/mL of pyruvate kinase, 10 IU/mL of lactate dehydrogenase, 3.5 μg/mL of the Ca ionophore A23187, and CaCl2 added to set free [Ca] to the desired values. The assay was started upon the addition of ATP at a final concentration of 5 mM and read in a SpectraMax Plus microplate spectrophotometer rom Molecular Devices (Sunnyvale, CA).

[2] = target: T2, skeletal SR (SERCA1a only) (Oryctolagus cuniculus, UniProt P04191); assay: Ca-ATPase activity of skeletal SR (SSR), NADH-linked enzyme-coupled assay; type: biochemical, rabbit; details: for EC50 / Vmax @ 30 µM / ΔVmax @ 30 µM / percent change in Vmax vs DMSO control at 30 µM: SSR; for Vmax @ 30 µM / ΔVmax @ 30 µM / percent change in Vmax vs DMSO control at 30 µM: 30 µM compound; for ΔVmax @ 30 µM / percent change in Vmax vs DMSO control at 30 µM: relative to DMSO control; for percent change in Vmax vs DMSO control at 30 µM: read-out: ΔVmax @ 30 µM
T2 construct: Skeletal muscle SR membrane vesicles were isolated from longissimus dorsi obtained from New Zealand white rabbits; from tissue; host or cells: rabbit longissimus dorsi skeletal muscle, SR membrane vesicles
T2 sequence (P04191 1-994 isoform P04191-2): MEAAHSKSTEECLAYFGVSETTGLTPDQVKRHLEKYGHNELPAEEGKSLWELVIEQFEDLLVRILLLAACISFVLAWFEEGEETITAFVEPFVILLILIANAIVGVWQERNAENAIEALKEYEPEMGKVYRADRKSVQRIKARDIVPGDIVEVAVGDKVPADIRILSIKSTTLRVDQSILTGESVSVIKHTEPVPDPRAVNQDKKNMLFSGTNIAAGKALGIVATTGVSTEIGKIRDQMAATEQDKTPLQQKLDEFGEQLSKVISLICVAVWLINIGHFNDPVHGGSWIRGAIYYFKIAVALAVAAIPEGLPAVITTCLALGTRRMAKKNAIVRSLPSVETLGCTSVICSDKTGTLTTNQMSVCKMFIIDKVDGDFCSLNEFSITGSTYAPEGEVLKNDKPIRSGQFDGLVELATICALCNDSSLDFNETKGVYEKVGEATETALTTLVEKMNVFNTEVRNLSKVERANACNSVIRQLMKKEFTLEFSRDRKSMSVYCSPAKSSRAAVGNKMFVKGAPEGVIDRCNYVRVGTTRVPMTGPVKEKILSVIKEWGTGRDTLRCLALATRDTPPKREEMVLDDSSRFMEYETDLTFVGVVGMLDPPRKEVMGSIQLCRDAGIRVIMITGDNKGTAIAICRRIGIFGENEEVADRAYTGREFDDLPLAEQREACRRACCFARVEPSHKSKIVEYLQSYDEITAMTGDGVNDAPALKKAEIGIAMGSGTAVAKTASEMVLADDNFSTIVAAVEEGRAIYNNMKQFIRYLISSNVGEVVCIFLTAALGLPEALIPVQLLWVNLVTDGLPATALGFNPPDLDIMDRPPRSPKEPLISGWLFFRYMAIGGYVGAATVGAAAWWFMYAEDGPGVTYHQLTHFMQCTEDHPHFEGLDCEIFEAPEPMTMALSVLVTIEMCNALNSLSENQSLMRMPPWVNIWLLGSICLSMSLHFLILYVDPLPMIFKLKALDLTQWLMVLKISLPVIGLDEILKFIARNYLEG
Procedure: To further examine the functional effects of Hit compounds, Ca-ATPase assays were performed on both skeletal SR (SERCA1a only) and cardiac SR (SERCA2a + PLB) at a series of Ca concentrations ranging from pCa 5 to 8.
as §1, §2

[3] = target: SERCA2a-PLB complex (GFP-SERCA2a / RFP-PLB in HEK293 cells) (Homo sapiens, UniProt P16615+P26678, C36A/C41F/C46A); assay: SERCA2a-PLB TR-FRET (fluorescence lifetime) biosensor assay in living cells; type: cell-based; set-up: expressed in transfected cells; host or cells: HEK293; details: for ΔFLT: compound incubation for 20 min, uncertainty (1 S.D.) 11 ps; for direction of FRET change of the SERCA2a-PLB biosensor: concentration-response 0.01-100 µM
Chain of SERCA2a-PLB complex (GFP-SERCA2a / RFP-PLB in HEK293 cells) (P16615 1-997 isoform P16615-2, stated change not applied): as the sequence (P11607 1-997 isoform P11607-2) above, with K371R, K403N, P538S, M570L, N576H, E667D, S713A, T865S, V889I, L963V counted along it
Chain of SERCA2a-PLB complex (GFP-SERCA2a / RFP-PLB in HEK293 cells) (P26678 whole entry C36A/C41F/C46A, the tested form may be a part): as the sequence (P61013 whole entry partner) above, with D2E, N27K, C36A, C41F, C46A counted along it

[4] = target: GFP-SERCA2a (eGFP fused to the N-terminus of human cardiac sarcoplasmic reticulum Ca-ATPase SERCA2a) (human) (UniProt P16615); assay: FRET or BRET; time-resolved FRET (donor fluorescence lifetime) in saponin-permeabilized HEK293 cells, low Ca (100 nM); also tested with 100 nM thapsigargin
Chain of GFP-SERCA2a (eGFP fused to the N-terminus of human cardiac sarcoplasmic reticulum Ca-ATPase SERCA2a) (human) (P16615 other isoform, or with tags, fused parts or gaps): as the sequence (P11607 1-997 isoform P11607-2) above, with K371R, K403N, P538S, M570L, N576H, E667D, S713A, T865S, V889I, L963V counted along it

[5] = target: GFP-SERCA2a (eGFP fused to the N-terminus of human cardiac sarcoplasmic reticulum Ca-ATPase SERCA2a) (human) (UniProt P16615); assay: FRET or BRET; time-resolved FRET (donor fluorescence lifetime) in saponin-permeabilized HEK293 cells, high Ca (10 µM); also tested with 100 nM thapsigargin, which prevents the Ca-dependent decrease in FRET
[6] = target: GFP-SERCA2a (eGFP fused to the N-terminus of human cardiac sarcoplasmic reticulum Ca-ATPase SERCA2a) (human) (UniProt P16615); assay: FRET or BRET; time-resolved FRET (donor fluorescence lifetime, plate reader) in live HEK293 cells co-expressing GFP-SERCA2a (donor) and increasing amounts of RFP-PLB (acceptor); value at saturating acceptor
[7] = concentration-response 0.01-100 µM compound, live HEK293 cells

Chain of RFP-PLB (tagRFP fused to the N-terminus of a monomeric mutant of human phospholamban) (P26678 whole entry C36A/C46A, change not shown, the tested form may be a part): as the sequence (P61013 whole entry partner) above, with D2E, N27K, C36A, C46A counted along it

Row | Molecule | Vmax @ 30 µM ([1]; CSR) [i.u.] | ΔVmax @ 30 µM ([1]; CSR) [%] | EC50 ([1]; CSR, read-out: EC50 Vmax) [µM] | EC50 [2] | Vmax @ 30 µM [2] [i.u.] | ΔVmax @ 30 µM [2] [%] | ΔFLT ([3]; final concentration 10 µM) [ps] | ΔFLT ([3]; final concentration 100 µM) [ps] | EC50 [3, 7] [µM] | percent change in Vmax vs DMSO control at 30 µM [2] [%] | other results
1 | CCCCCCCCCCCCCCCC(=O)OC(CC(=O)O)C[N+](C)(C)C.[Cl-] (racemic) [Palmitoyl-DL-carnitine chloride] | 0.22 | -67.1 | 16.1 | 12.2 µM | 0.57 | -78.1 | 50 | 189 | 24.9 | – | –
2 | CCc1ccc(/C=C2/SC(=S)NC2=O)cc1 [10058-F4] | 0.63 | -7.5 | – | – | 2.63 | 0.5 | 17 | -11 | – | – | –
3 | CC(C)(C)c1ccc(/C=C/C(=O)Nc2ccc3c(c2)OCCO3)cc1 [AMG9810] | 0.68 | 0.1 | – | – | 2.62 | 0.1 | 6 | -1 | – | – | –
4 | CCCCN(CC)c1nc(C)nc2c1c(C)cn2-c1c(C)cc(C)cc1C [CP 154526] | 0.91 | 34.4 | 1 | 2.5 µM and 2.47 µM | 3.40 | – | 48 | 185 | 9.3 | 35 | increase of Vmax ([1]; cardiac SR): 34%; increase of Vmax ([2]; skeletal SR): 35%; direction of FRET change of the SERCA2a-PLB biosensor [3]: decrease in FRET
5 | CN1CCC[C@@H]1Cc1c[nH]c2ccc(Nc3ncccc3[N+](=O)[O-])cc12 [CP-135807] | 0.65 | -3.8 | – | – | 2.67 | 2.1 | -70 | -390 | > 100 | – | –
6 | Clc1ccc(C(c2ccc(Cl)cc2)n2cc[n+](CC(OCc3ccc(Cl)cc3Cl)c3ccc(Cl)cc3Cl)c2)cc1 (stereo not shown) [Calmidazolium] | 0.08 | -88.7 | 15.9 | 7.43 µM | 0.01 | – | 45 | -192 | 26.3 | -99.5 | –
7 | CCOc1nc2cccc(C(=O)OC(C)OC(=O)OC3CCCCC3)c2n1Cc1ccc(-c2ccccc2-c2nnn[nH]2)cc1 (stereo not shown) [Candesartan cilexetil] | 0.17 | -75.3 | 11.7 | 7.42 µM | 0.41 | – | 70 | 181 | 20.1 | -84.5 | –
8 | CNC(=O)c1cc2c(cn1)[nH]c1ccccc12 [FG7142] | 0.67 | -0.7 | – | – | 2.63 | 0.5 | 4 | 10 | – | – | –
9 | COC(=O)c1c(C)[nH]c(C)c1C(=O)c1ccccc1Cc1ccccc1 [FPL 64176] | 0.52 | -23.0 | – | – | 2.64 | 0.7 | 19 | 47 | > 100 | – | –
10 | Oc1ccc(/C=C/c2ccc(/C=C/c3ccc(O)cc3)c(Br)c2)cc1 [K114] | 0.11 | -83.7 | 6.7 | 3.53 µM | 0.32 | -87.9 | -16 | -102 | 41.3 | – | –
11 | Cc1[nH]c(=O)c(C#N)cc1-c1ccc2nccn2c1 [Olprinone] | 0.68 | -0.1 | – | – | 2.70 | – | 36 | 254 | > 100 | 3 | –
12 | O=C(Nc1cccnc1)N1CCC(Cc2cccc(Oc3ccc(C(F)(F)F)cn3)c2)CC1 [PF3845] | 0.48 | -28.3 | – | – | 2.61 | – | 30 | 38 | – | -0.2 | EC50 [3]: 3.2 µM
13 | CC1=C(/C=C/C(C)=C/C=C/C(C)=C/C(=O)O)C(C)(C)CCC1 [Retinoic Acid] | 0.42 | -37.8 | 11.2 | – | 2.34 | – | 27 | -31 | 65.5 | -10.6 | –
14 | O=C(c1cc(O)c(O)c([N+](=O)[O-])c1)c1ccccc1F [Ro 41-0960] | 0.53 | -20.9 | – | 9.78 µM | 1.44 | -45.1 | -26 | -152 | 22.5 | – | EC50 ([1]; cardiac SR (SERCA2a + PLB), read-out: EC50 of the increase in Ca affinity (pKCa)): 23 µM; increase of Ca-ATPase activity at pCa 6.4 ([1]; cardiac SR, pCa 6.4, 24 µM compound): 44%; Ca affinity (pKCa) in cardiac SR with compound ([1]; increased from 6.05 (control), concentration-dependent, up to 64 µM): 6.45; effect on Ca affinity in skeletal SR ([2]; even at the highest compound concentrations): no effect; direction of FRET change of the SERCA2a-PLB biosensor [3]: increase in FRET
15 | C=C(C)[C@H]1Cc2c(ccc3c2O[C@@H]2COc4cc(OC)c(OC)cc4[C@@H]2C3=O)O1 [Rotenone] | 0.53 | -22.0 | – | – | 2.64 | – | – | – | – | 0.7 | –
16 | CN=c1nc(-c2ccccc2)n(-c2ccccc2)s1 [SCH 202676] | 0.22 | -68.2 | 1.4 | 0.9 µM | 0.07 | -97.3 | 36 | 35 | 1.8 | – | decrease of Vmax ([1]; cardiac SR): 68%; decrease of Vmax ([2]; skeletal SR): 97%; direction of FRET change of the SERCA2a-PLB biosensor [3]: decrease in FRET
17 | Brc1c(Br)c(Br)c2n[nH]nc2c1Br [TBB] | 0.49 | -27.2 | – | – | 2.66 | 1.6 | 31 | 63 | 73.2 | – | –
18 | NC(=O)N1C(=O)/C(=C(\O)c2cccs2)c2cc(Cl)ccc21 [Tenidap] | 0.66 | -1.7 | – | – | 2.66 | – | 8 | -68 | – | 1.8 | EC50 [3]: > 100 µM
19 | RFP-PLB (tagRFP fused to the N-terminus of a monomeric mutant of human phospholamban) (from UniProt P26678 1-52) (natural protein) | – | – | – | – | – | – | – | – | – | – | FRET efficiency E [4]: 0.14; FRET efficiency E [5]: 0.11; maximum FRET efficiency E [6]: 0.103
